Assays:
[1] = Photostability Example: aqueous photolysis under xenon arc lamp simulating natural sunlight for 24 hours, percent remaining relative to dark controls; format: physicochemical; conditions: 0.670 μg/mL in 80/20 10 mM pH 7 phosphate buffer/acetonitrile, xenon arc lamp 24 hours
Description: Aqueous photolysis data is a simple proxy for photostability under field conditions. The following aqueous photolysis data supports the enhanced photostability of the tolyl fungicides of the present invention.
Test compound (0.670 μg/mL) dissolved in 80/20 10 mM pH 7 phosphate buffer/acetonitrile is added to 2-mL borosilicate glass HPLC vials. The addition of 20% acetonitrile is intended to ensure solubility of compounds with low aqueous solubility. Samples are exposed to light in an Atlas Ci65 Burner photolysis chamber fitted with a xenon arc lamp (6500 W) to simulate natural sunlight for 24 hours and compared with samples wrapped in aluminum foil to protect them from light under the same conditions. The 24-hour irradiation is equivalent to ˜2.6 days of average Delaware summer sunlight exposure. Samples are analyzed by HPLC and results are reported as percent remaining based on peak area relative to the dark controls.

[2] = test system: Erysiphe graminis f. sp. tritici; experiment: Test A: wheat powdery mildew, preventive spray on wheat seedlings, visual disease rating; format: in vivo; conditions: Blumeria graminis, 192 h, 200 ppm, 100 = 100% disease control
In short: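 Preventive test: seedlings inoculated with Erysiphe spores one day after run-off spraying at 200 ppm (or 40/50 ppm) in acetone/water plus surfactant. Kept 8 days at 20° C; visual rating as % disease control versus untreated (100 = full control).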

[3] = test system: Puccinia recondita f sp. tritici; experiment: Test B: wheat leaf rust, preventive spray on wheat seedlings, visual disease rating; format: in vivo; conditions: 192 h, 200 ppm, 100 = 100% disease control
In short: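 Preventive spray to run-off on seedlings, one day before spore inoculation; 24 h in saturated atmosphere at 20° C, then 7 days in a 20° C growth chamber before visual rating (100 = full control, 0 = none, relative to controls). Standard rate 200 ppm, equal to 800 g/ha, some at 40 or 50 ppm; compounds in acetone/water with 250 ppm surfactant.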

[4] = test system: Septoria tritici; experiment: Test C: wheat leaf blotch, preventive spray on wheat seedlings, visual disease rating; format: in vivo; conditions: Zymoseptoria tritici, 504 h, 200 ppm, 100 = 100% disease control
In short: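 Preventive run-off spray on seedlings at 200 ppm (equal to 800 g/ha), some at 40 or 50 ppm, in acetone/water 50/50 plus 250 ppm Trem® 014. Spore inoculation one day later; 24° C. saturated for 48 h, 20° C. chamber 19 days. Disease scored visually as % control relative to controls.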

[5] = test system: Septoria nodorum; experiment: Test D: wheat glume blotch, preventive spray on wheat seedlings, visual disease rating; format: in vivo; conditions: Parastagonospora nodorum, 216 h, 200 ppm, 100 = 100% disease control
In short: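 Disease control (0 = none, 100 = full, relative to controls) was scored visually on wheat seedlings 7 days after a 48 h saturated-humidity incubation at 20° C following Septoria nodorum inoculation. Inoculation came one day after a run-off spray at 200 ppm (some 40 or 50 ppm) in acetone/water plus surfactant.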

[6] = test system: Botrytis cinerea; experiment: Test E: tomato botrytis, preventive spray on tomato seedlings, visual disease rating; format: in vivo; conditions: Botrytis cinerea, 120 h, 200 ppm, 100 = 100% disease control
In short: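 Preventive test: seedlings inoculated with Botrytis cinerea spore suspension one day after run-off spraying (200 ppm ≈ 800 g/ha; some 40 or 50 ppm) in acetone/water with 250 ppm surfactant. Incubation 48 h at 20°C saturated humidity, then 3 days at 27°C; disease control rated visually (0–100%) relative to controls.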

| Structure (SMILES) | % Cmpd Remaining [1] [%] | pest or weed control at 200 ppm [2] [%] | pest or weed control at 200 ppm [3] [%] | pest or weed control at 200 ppm [4] [%] | pest or weed control at 200 ppm [5] [%] | pest or weed control at 200 ppm [6] [%] | melting point [°C] |
| --- | --- | --- | --- | --- | --- | --- | --- |
| COC(=O)NCc1cc(-n2ccc(-c3ccc(OC)cc3C)n2)ccc1C [Compound 10, methyl N-[[5-[3-(4-methoxy-2-methylphenyl)-1H-pyrazol-1-yl]-2-methylphenyl]-methyl]carbamate] | 97 | 100 | 100 | 100 | 100 | 97 | 97 to 99 |
| COC(=O)NCc1cc(-n2ncc(-c3ccc(OC)cc3OC)n2)ccc1C [Compound 17, methyl N-[[5-[4-(2,4-dimethoxyphenyl)-2H-1,2,3-triazol-2-yl]-2-methylphenyl]methyl]carbamate] | 30 | 100 | 100 | 100 | 100 | 33 | 132 to 135 |

From patent publication US20150266850A1 (E.I.DU PONT DE NEMOURS AND COMPANY, priority 2012, published 2015)
